One series deals with mice. The note with it: ref Chao and Casida [1997], Tomizawa et al. [2000], [2001]; cited from earlier work.
The target of series [1] is nAChRs on SH-SY5Y cells (Homo sapiens, UniProt P36544). Kind of series: [Ca2+]i measurements in SH-SY5Y cells (agonist effect). Type of series: cell-based. The conditions noted are these: presence of PNU. The procedure: (§1) SH-SY5Y cells were cultured as previously described (Attoff et al. [2016]). Briefly, they were cultured in MEM supplemented with 10% fetal bovine serum (Gibco, 31330095), 1% non-essential amino acid solution (Gibco, 11140035), 2 mM L-glutamine (Gibco, 25030024), 100 μg/ml streptomycin, and 100 U/ml penicillin (Gibco, 15140122). For maintenance culture, SH-SY5Y cells were seeded at 27,000 cells/cm^2 in 75 cm^2 cell culture flasks (Corning). The cells were passaged once a week using TrypLE Express Enzyme (Gibco). SH-SY5Y cells were differentiated into a neuronal-like phenotype by exchanging the maintenance medium with differentiation medium consisting of DMEM/F12 (Gibco, 31330095) supplemented with 1 mM L-glutamine (Gibco, 25030024), 100 μg streptomycin/mL, 100 U penicillin/mL, 1 × N2-supplement (Gibco, 17502048) and 1 µM all-trans retinoic acid (RA, Sigma, R2625) 24 h after seeding. The cells were incubated in 100% humidity at 37 °C in air with 5% CO2.
(§2) To measure acute changes in the average [Ca^2+]i of a population, SH-SY5Y cells were examined in the 96-well plate fluorescence reader FlexStation II (Molecular Devices) using the fluorophore Fura-2AM. SH-SY5Y (35,000 cells/well; 109,375 cells/cm^2) were seeded in maintenance culture medium in black 96-well plates with clear bottom (Corning, #3603). 24 h after seeding, maintenance medium was replaced with differentiation medium. After 72 h of differentiation, Fura-2AM dissolved in DMSO and diluted in KRH buffer (125 mM NaCl, 5 mM KCl, 1.2 mM MgSO4, 1.2 mM KH2PO4, 2.0 mM CaCl2, 6.0 mM D-glucose, and 25 mM HEPES (free acid), pH adjusted to 7.4 by 1.0 M NaOH) were added to the medium to a final concentration of 4 µM (Gustafsson et al. [2010]). The plates were incubated for 30 min at 37 °C before cells were washed once with 200 µl KRH buffer. 90 µl of KRH buffer without or with 10 µM PNU-120596 (PNU) and/or 125 µM mecamylamine (Mec) and/or test chemicals in different concentrations for antagonist experiments were added to the Fura-2AM-loaded cells. The plate was again incubated for 20 min to allow full hydrolysis of the AM group before the experiment. The fluorescence was assessed at 37 °C in the fluorescence plate reader (FlexStation II; Molecular Devices) at two different excitation wavelengths, 340 nm for Ca^2+-bound Fura-2 and 380 nm for free Fura-2, and at 510 nm emission, every 3.1 s using bottom read settings. After 26–29 s of initial baseline recording of the fluorescence intensity, 10 µl of the compound dilution (10 times higher than the final concentration to the cells) was transferred automatically by the FlexStation II (“Flex mode”) to the cell plate wells (five wells per concentration) and the fluorescence intensity was monitored for another 150 s. The ratio of fluorescence intensity at 340/380 nm was determined and the mean values from the baseline recording before the addition of test compounds was set to zero. The acute change in the Ca^2+ influx after the addition of the compounds was quantified as the area under the curve (AUC) using the SoftMax Pro 4.8 software (Molecular Devices). All test compounds were dissolved in DMSO. Compounds were diluted in KRH buffer in 1:3 series, with 100 µM as the highest concentration. As a negative control, 0.1% DMSO in KRH buffer was used.

In series [2] the test system is nAChRs on SH-SY5Y cells. The series is described as above. Type of series: cell-based, human. The procedure:
as §1, §2

The target of another series is T1, human α4β2 (HS) nAChR (Homo sapiens, UniProt P17787+P43681).
T1 construct: expressed in transfected cells; host or cells: Xenopus laevis oocytes (EcoCyte Bioscience), mRNA injection, 3 ng α4 and 30 ng β2
In words: Two-electrode voltage-clamp recordings, Xenopus laevis oocytes expressing human α4β2 (HS) nAChR. Type of series: cell-based. (In general: In two-electrode clamp one electrode senses voltage and the other passes current.)

In series [3] the test system is nAChRs on SH-SY5Y cells. In words: Desensitization of the nicotine response of SH-SY5Y cells. Type of series: cell-based, human. The conditions noted are these: pretreatment 20 min, nicotine 10 µM, PNU 10 µM. The procedure: To measure acute changes in the average [Ca^2+]i of a population, SH-SY5Y cells were examined in the 96-well plate fluorescence reader FlexStation II (Molecular Devices) using the fluorophore Fura-2AM. SH-SY5Y (35,000 cells/well; 109,375 cells/cm^2) were seeded in maintenance culture medium in black 96-well plates with clear bottom (Corning, #3603). 24 h after seeding, maintenance medium was replaced with differentiation medium. […] The fluorescence was assessed at 37 °C in the fluorescence plate reader (FlexStation II; Molecular Devices) at two different excitation wavelengths, 340 nm for Ca^2+-bound Fura-2 and 380 nm for free Fura-2, and at 510 nm emission, every 3.1 s using bottom read settings. After 26–29 s of initial baseline recording of the fluorescence intensity, 10 µl of the compound dilution (10 times higher than the final concentration to the cells) was transferred automatically by the FlexStation II (“Flex mode”) to the cell plate wells (five wells per concentration) and the fluorescence intensity was monitored for another 150 s. The ratio of fluorescence intensity at 340/380 nm was determined and the mean values from the baseline recording before the addition of test compounds was set to zero. The acute change in the Ca^2+ influx after the addition of the compounds was quantified as the area under the curve (AUC) using the SoftMax Pro 4.8 software (Molecular Devices). […]

Each structure is given as a SMILES string. pEC50: −log10 of the molar value. “And” between values parts separate entries of the source, which are not always exact repeats. Identical values can stand only once.

T1 sequence (P43681 27-627): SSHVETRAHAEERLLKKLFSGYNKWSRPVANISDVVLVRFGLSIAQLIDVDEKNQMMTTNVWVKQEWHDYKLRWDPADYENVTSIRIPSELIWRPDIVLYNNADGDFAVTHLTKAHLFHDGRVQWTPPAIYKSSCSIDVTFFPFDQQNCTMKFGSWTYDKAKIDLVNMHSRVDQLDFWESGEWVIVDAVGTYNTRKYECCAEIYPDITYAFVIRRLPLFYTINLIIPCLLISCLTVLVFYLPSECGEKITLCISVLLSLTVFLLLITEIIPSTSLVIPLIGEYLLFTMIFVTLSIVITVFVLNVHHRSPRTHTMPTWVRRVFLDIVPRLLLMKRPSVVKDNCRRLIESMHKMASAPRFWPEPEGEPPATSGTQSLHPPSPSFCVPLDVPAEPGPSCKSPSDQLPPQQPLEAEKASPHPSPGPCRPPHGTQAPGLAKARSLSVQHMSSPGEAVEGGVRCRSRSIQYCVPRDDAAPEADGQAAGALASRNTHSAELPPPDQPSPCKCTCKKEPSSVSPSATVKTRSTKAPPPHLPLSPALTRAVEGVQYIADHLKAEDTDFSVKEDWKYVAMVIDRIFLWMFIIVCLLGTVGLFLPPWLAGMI
T1 sequence (P17787 26-502): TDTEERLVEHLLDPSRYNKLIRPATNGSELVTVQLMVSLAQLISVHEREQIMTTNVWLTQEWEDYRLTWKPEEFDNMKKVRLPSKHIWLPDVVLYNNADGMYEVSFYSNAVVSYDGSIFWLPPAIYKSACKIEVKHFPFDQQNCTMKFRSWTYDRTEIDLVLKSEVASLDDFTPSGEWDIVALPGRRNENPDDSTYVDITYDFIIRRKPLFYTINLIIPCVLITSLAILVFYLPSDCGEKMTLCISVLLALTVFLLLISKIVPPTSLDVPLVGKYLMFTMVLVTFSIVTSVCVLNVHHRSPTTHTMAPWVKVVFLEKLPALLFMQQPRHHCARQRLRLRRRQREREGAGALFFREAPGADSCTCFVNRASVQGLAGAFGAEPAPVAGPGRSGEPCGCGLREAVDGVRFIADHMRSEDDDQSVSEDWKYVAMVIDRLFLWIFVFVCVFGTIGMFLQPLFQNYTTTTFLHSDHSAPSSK
Chain of nAChRs on SH-SY5Y cells (Homo sapiens, UniProt P36544) (P36544 23-502): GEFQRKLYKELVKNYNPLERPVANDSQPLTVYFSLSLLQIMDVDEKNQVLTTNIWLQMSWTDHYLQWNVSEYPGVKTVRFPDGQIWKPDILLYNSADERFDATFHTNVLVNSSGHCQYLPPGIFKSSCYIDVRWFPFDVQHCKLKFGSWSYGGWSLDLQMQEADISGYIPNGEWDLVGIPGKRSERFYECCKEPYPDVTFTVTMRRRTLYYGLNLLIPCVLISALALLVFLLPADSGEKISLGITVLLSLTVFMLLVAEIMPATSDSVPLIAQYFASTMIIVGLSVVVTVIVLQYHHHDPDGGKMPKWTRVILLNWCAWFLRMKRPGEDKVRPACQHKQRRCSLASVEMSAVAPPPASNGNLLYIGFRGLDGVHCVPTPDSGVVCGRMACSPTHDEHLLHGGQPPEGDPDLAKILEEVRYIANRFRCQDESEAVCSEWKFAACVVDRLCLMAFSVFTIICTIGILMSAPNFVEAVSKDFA

As a reminder, the LD50 is the dose expected to kill half of the subjects tested. With `NC1=NCCN1Cc1ccc(Cl)nc1` [DN-IMI, desnitro-imidacloprid], in the series with mice, the 50% lethal dose (LD50) is 6 to 24 mg/kg. The “relative pEC50 (AUC of fluorescence)” value was 6.5 ± 0.07 on nAChRs on SH-SY5Y cells [1] (normalized to 10 µM nicotine, fit for < 10 µM) and 6.8 ± 0.36 in the series on nAChRs on SH-SY5Y cells [2] (absence of PNU, normalized to 10 µM nicotine, fit for < 10 µM). In addition, the pEC50 at nAChRs on SH-SY5Y cells [1] (read-out: half-maximal response concentration) is 6.52 and ~6.52; on human α4β2 (HS) nAChR it was 6.30. Also, the “response without PNU as % of the maximal response obtained in the presence of PNU” value in the series on nAChRs on SH-SY5Y cells [2] (absence of PNU) is recorded as “about 44%”. Moreover, the estimated maximum in the series with nAChRs on SH-SY5Y cells [2] (absence of PNU, normalized to 10 µM nicotine) is listed as ~ 0.44; in the series on nAChRs on SH-SY5Y cells [2] (presence of PNU, normalized to 10 µM nicotine) it was ~ 0.93. Further, in the series with nAChRs on SH-SY5Y cells [2] (presence of PNU, declining responses at higher concentrations), the “concentration of peak response” value is given as ~ 3 µM. For the same molecule, at human α4β2 (HS) nAChR, the “fold lower concentrations activating α4β2 (HS) than α7 and α3β4 nAChRs” value came to 20 fold. The “higher potency on α4β2 (HS) nAChR than on other subtypes” value on human α4β2 (HS) nAChR (comparison of EC25 values, α4β2 (HS) vs α7 and α3β4) is listed as greater than 1 log-step. For the same molecule, the “absolute EC25” value on human α4β2 (HS) nAChR (from curve-fitted concentration–response data) turned out to be 330 nM. In addition, on human α4β2 (HS) nAChR (normalized to nicotine (10 µM)), the “estimated maximum amplitude, % of nicotine's” value is 64%. The “effect of pretreatment on the response to nicotine in SH-SY5Y” value in the series with nAChRs on SH-SY5Y cells [3] was “reduced/abolished the response to nicotine in the submicromolar range”.

The values are drawn from article PMC8536575, “Acute effects of the imidacloprid metabolite desnitro-imidacloprid on human nACh receptors relevant for neuronal signaling” (Archives of Toxicology, 2021).
